Assay results reported in the supplement of paper PMC11061612.

What was measured:
Experiment in all cases: Bliss excess, mean over the matrix (fraction); higher = more synergy
[1] = test system: BL-41 (Burkitt's Lymphoma)
Summary of the method: (§1)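 Cell lines grown in DMEM/F12 or RPMI with 10% FBS were plated in 1536-well plates and held 24 hours at 37°C, 5% CO2 before 72 hours of exposure to two-drug dose matrices, with DMSO typically at 0.2%. CellTiter-Glo 2.0 luminescence gave viability, which was converted to inhibition. Vehicle wells were set to 0 and blank wells to 1. Combination Emax is the second-highest inhibition in the matrix, and Bliss excess is the observed combination effect minus the expected EA + EB − EA·EB, where EA and EB are the single-agent effects.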

[2] = test system: CAMA-1 (Breast Carcinoma)
Summary of the method: as §1

[3] = test system: DiFi (Colorectal Carcinoma)
Summary of the method: as §1

[4] = test system: ES8 (Ewing's Sarcoma)
Summary of the method: as §1

[5] = test system: EVSA-T (Breast Carcinoma)
Summary of the method: as §1

[6] = test system: HDQ-P1 (Breast Carcinoma)
Summary of the method: as §1

[7] = test system: KYSE-180 (Esophageal Squamous Cell Carcinoma)
Summary of the method: as §1

[8] = test system: MEL-JUSO (Melanoma)
Summary of the method: as §1

[9] = test system: MFM-223 (Breast Carcinoma)
Summary of the method: as §1

[10] = test system: MKN28 (Gastric Carcinoma)
Summary of the method: as §1

[11] = test system: MS751 (Cervical Carcinoma)
Summary of the method: as §1

[12] = test system: NCI-H1792 (Lung Adenocarcinoma)
Summary of the method: as §1

[13] = test system: NCI-H847 (Small Cell Lung Carcinoma)
Summary of the method: as §1

[14] = test system: SU-DHL-8 (B-Cell Non-Hodgkin's Lymphoma)
Summary of the method: as §1

[15] = test system: SW1417 (Colorectal Carcinoma)
Summary of the method: as §1

[16] = test system: TC-71 (Ewing's Sarcoma)
Summary of the method: as §1

[17] = test system: TE-6 (Esophageal Squamous Cell Carcinoma)
Summary of the method: as §1

[18] = test system: U251 (Low Grade Glioma)
Summary of the method: as §1

[19] = test system: WIL2-NS (Non-Cancerous)
Summary of the method: as §1

| SMILES | Bliss excess [1] | Bliss excess [2] | Bliss excess [3] | Bliss excess [4] | Bliss excess [5] | Bliss excess [6] | Bliss excess [7] | Bliss excess [8] | Bliss excess [9] | Bliss excess [10] | Bliss excess [11] | Bliss excess [12] | Bliss excess [13] | Bliss excess [14] | Bliss excess [15] | Bliss excess [16] | Bliss excess [17] | Bliss excess [18] | Bliss excess [19] |
| --- | --- | --- | --- | --- | --- | --- | --- | --- | --- | --- | --- | --- | --- | --- | --- | --- | --- | --- | --- |
| C=CCn1c(=O)c2cnc(Nc3ccc(N4CCN(C)CC4)cc3)nc2n1-c1cccc(C(C)(C)O)n1 [AZD1775] + C[C@@H]1COCCN1C2=NC(=NC(=C2)C3(CC3)[S@](=N)(=O)C)C4=C5C=CNC5=NC=C4 [AZD6738] (first compound max 1 µM, partner max 10 µM) | 0.0369 | 0.0371 | 0.0242 | 0.0178 | 0.033 | -0.0038 | 0.0869 | 0.0009 | 0.0412 | 0.0597 | 0.0075 | 0.0105 | 0.0684 | -0.0202 | -0.0253 | 0.0431 | 0.0135 | 0.0604 | 0.0269 |
| C=CCn1c(=O)c2cnc(Nc3ccc(N4CCN(C)CC4)cc3)nc2n1-c1cccc(C(C)(C)O)n1 [AZD1775] + O=C(c1cc(Cc2n[nH]c(=O)c3ccccc23)ccc1F)N1CCN(C(=O)C2CC2)CC1 [Olaparib] (first compound max 1 µM, partner max 10 µM) | -0.0211 | -0.0452 | -0.0145 | 0.0059 | 0.0622 | -0.0441 | 0.0253 | -0.0523 | -0.0421 | 0.0046 | -0.0021 | -0.0261 | 0.0627 | -0.0157 | -0.0605 | -0.0626 | -0.0297 | -0.0154 | -0.0087 |
| CCN(CCO)CCCOc1ccc2c(Nc3cc(CC(=O)Nc4cccc(F)c4)[nH]n3)ncnc2c1 [AZD2811] + C=CCn1c(=O)c2cnc(Nc3ccc(N4CCN(C)CC4)cc3)nc2n1-c1cccc(C(C)(C)O)n1 [AZD1775] (first compound max 1 µM, partner max 1 µM) | 0.0862 | -0.0328 | 0.0322 | -0.0218 | -0.0073 | -0.0186 | 0.0089 | 0.0131 | 0.0277 | -0.0954 | 0.0461 | -0.0328 | -0.0091 | 0.0945 | -0.0654 | 0.0744 | -0.0367 | -0.0117 | 0.0117 |
| CCN(CCO)CCCOc1ccc2c(Nc3cc(CC(=O)Nc4cccc(F)c4)[nH]n3)ncnc2c1 [AZD2811] + C[C@@H]1COCCN1C2=NC(=NC(=C2)C3(CC3)[S@](=N)(=O)C)C4=C5C=CNC5=NC=C4 [AZD6738] (first compound max 1 µM, 7x7, partner max 10 µM) | -0.0647 | -0.0417 | -0.0331 | -0.0554 | -0.0263 | -0.0597 | -0.0184 | -0.0644 | -0.0251 | -0.0513 | 0.041 | -0.0577 | -0.0089 | 0.134 | -0.0709 | -0.0335 | -0.0175 | -0.0255 | 0.0036 |
| CCN(CCO)CCCOc1ccc2c(Nc3cc(CC(=O)Nc4cccc(F)c4)[nH]n3)ncnc2c1 [AZD2811] + O=C(c1cc(Cc2n[nH]c(=O)c3ccccc23)ccc1F)N1CCN(C(=O)C2CC2)CC1 [Olaparib] (first compound max 1 µM, 7x7, partner max 10 µM) | -0.121 | -0.0308 | -0.0153 | -0.0296 | 0.0242 | 0.0076 | 0.0207 | -0.0015 | 0.0058 | -0.0319 | -0.0068 | -0.0029 | -0.0464 | 0.102 | -0.0456 | -0.0772 | -0.0006 | 0.0281 | -0.033 |
| C[C@@H]1COCCN1c1cc(C2([S@](C)(=N)=O)CC2)nc(-c2ccnc3[nH]ccc23)n1 [AZD6738] + O=C(c1cc(Cc2n[nH]c(=O)c3ccccc23)ccc1F)N1CCN(C(=O)C2CC2)CC1 [Olaparib] (first compound max 10 µM, 7x7, partner max 10 µM) | -0.0556 | -0.0327 | 0.0033 | 0.0543 | 0.0017 | 0.0155 | 0.0762 | 0.0118 | 0.0074 | -0.001 | 0.0114 | 0.0178 | -0.014 | 0.0343 | 0.0033 | -0.0726 | -0.0172 | 0.056 | -0.0083 |
| Cc1cc2ncnn2cc1Nc1ncc2c(n1)n(C1CCOCC1)c(=O)n2C [AZD7648] + C=CCn1c(=O)c2cnc(Nc3ccc(N4CCN(C)CC4)cc3)nc2n1-c1cccc(C(C)(C)O)n1 [AZD1775] (first compound max 10 µM, partner max 1 µM) | -0.0511 | -0.0068 | -0.0013 | -0.0014 | -0.024 | -0.0805 | 0.0302 | 0.0263 | -0.0357 | 0.0495 | 0.0245 | -0.0274 | -0.0216 | -0.0079 | -0.0328 | 0.055 | -0.07 | -0.014 | -0.0038 |
| Cc1cc2ncnn2cc1Nc1ncc2c(n1)n(C1CCOCC1)c(=O)n2C [AZD7648] + CCN(CCO)CCCOc1ccc2c(Nc3cc(CC(=O)Nc4cccc(F)c4)[nH]n3)ncnc2c1 [AZD2811] (first compound max 10 µM, 7x7, partner max 1 µM) | 0.0668 | -0.0677 | 0.005 | -0.011 | 0.0122 | -0.0154 | 0.0029 | 0.0461 | 0.0257 | 0.0124 | -0.0094 | 0.0321 | -0.0211 | 0.038 | -0.106 | -0.0301 | 0.0257 | -0.0046 | 0.0024 |
